Common to all, as to type: cell-based
In assay [1] the target is T1, serotonin transporter (SERT) (Homo sapiens, UniProt P31645).
T1 construct: expressed in transfected cells; host or cells: HEK-293
Nature of the assay: Serotonin reuptake inhibition, [3H]-5-HT, HEK-293 cells transfected with 5-HT transporter cDNA. Conditions: for Triple reuptake inhibition (Ratio %) SERT: compound 1 μM, [3H]-5-HT, relative to control without compound = 100%, lower value = more inhibition. On the procedure:
(§1) In order to evaluate the reuptake inhibitory effect of the compounds of the Examples according to the present invention on serotonin, norepinephrine and dopamine, the experiments below were performed, and the results are shown in Table 17.
(§2) To evaluate the reuptake inhibition effect on dopamine, the dopamine transporter cDNA was transfected using the HEK-293 cell line, and then sub-seeded in a 24 well plate the next day. After removing the medium, each compound of the Examples or Comparative Examples diluted to 1 μM in uptake buffer was added to a concentration of 200 μl/well and cultured at 37° C. for 15 minutes. 100 μl of uptake buffer containing 20-30 nM [3H]-DA was added and cultured at 37° C. for 5 minutes. The reaction solution was quickly removed and washed three times with 1 ml ice-cold uptake buffer. After dissolving the resultant in 1% SDS (0.5 ml), the degree of binding of radioisotope-labeled dopamine to the transporter was measured.
(§3) For norepinephrine (NE) and serotonin (5-HT), the degree of binding of radioisotope-labeled norepinephrine or serotonin to the transporter was measured in the same manner as above, except that cells transfected with NE or 5-HT transporter cDNA were used and [3H]—NE or [3H]-5-HT was used as a substrate.
(§4) In addition, when evaluating the reuptake inhibitory effect on dopamine, norepinephrine, and serotonin, the same method was performed without treating each compound of the Examples or Comparative Examples as a control, the degree of binding of radioisotope-labeled dopamine, norepinephrine, and serotonin to the transporter was measured, and by using this as a reference (100%), the triple reuptake inhibitory effect was evaluated as a relative ratio (Ratio %). That is, in the control group, the binding of dopamine, norepinephrine, and serotonin to transporters is not inhibited, but when each compound of the Examples is treated and thus the binding is inhibited, the Ratio % value decreases.
(§5) Meanwhile, the Ratio % values were compared, and in the case of the compounds of Examples 6, 10, 13, 14, 17, 20, 21, 22, 30, 31, 32, 34, 36, 38, 39, 40, 54, 55, 56, 57, 58 and 73 with excellent reuptake inhibitory effects on dopamine, norepinephrine and serotonin, the concentration at which the Ratio % is 50% was calculated using a total of 6 concentrations (1 nM, 5 nM, 10 nM, 50 nM, 100 nM, and 1 μM) and expressed as IC50.

Assay [2] concerns the target T2, dopamine transporter (DAT) (Homo sapiens, UniProt Q01959).
T2 construct: expressed in transfected cells; host or cells: HEK-293
Nature of the assay: Dopamine reuptake inhibition, [3H]-DA, HEK-293 cells transfected with dopamine transporter cDNA. Conditions: for Triple reuptake inhibition (Ratio %) DAT: compound 1 μM, 20-30 nM [3H]-DA, relative to control without compound = 100%, lower value = more inhibition. The procedure:
as §1, §2, §4, §5

In assay [3] the target is T3, norepinephrine transporter (NET) (Homo sapiens, UniProt P23975).
T3 construct: expressed in transfected cells; host or cells: HEK-293
T3 sequence (P23975 whole entry, species assumed): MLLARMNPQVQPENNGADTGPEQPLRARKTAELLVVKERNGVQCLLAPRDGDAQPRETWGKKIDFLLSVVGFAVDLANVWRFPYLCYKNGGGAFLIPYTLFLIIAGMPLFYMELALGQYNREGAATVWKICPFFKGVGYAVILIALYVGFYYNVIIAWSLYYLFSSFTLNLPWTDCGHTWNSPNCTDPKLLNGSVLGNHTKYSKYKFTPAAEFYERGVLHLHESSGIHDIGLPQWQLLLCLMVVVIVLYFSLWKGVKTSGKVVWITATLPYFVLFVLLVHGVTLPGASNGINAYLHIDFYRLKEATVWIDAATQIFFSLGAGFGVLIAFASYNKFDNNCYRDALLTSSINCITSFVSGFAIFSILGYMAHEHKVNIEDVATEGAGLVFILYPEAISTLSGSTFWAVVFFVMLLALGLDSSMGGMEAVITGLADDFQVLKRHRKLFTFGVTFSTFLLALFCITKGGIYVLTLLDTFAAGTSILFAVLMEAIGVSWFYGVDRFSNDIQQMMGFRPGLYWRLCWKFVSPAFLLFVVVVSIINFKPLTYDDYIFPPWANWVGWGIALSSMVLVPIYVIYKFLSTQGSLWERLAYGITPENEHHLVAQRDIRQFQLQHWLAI
Nature of the assay: Norepinephrine reuptake inhibition, [3H]-NE, HEK-293 cells transfected with NE transporter cDNA. Conditions: for Triple reuptake inhibition (Ratio %) NET: compound 1 μM, [3H]-NE, relative to control without compound = 100%, lower value = more inhibition. The procedure: as §1, §2, §3, §4, §5

Structures are written as SMILES.

A word on the IC50: it is the concentration that inhibits the measured activity by half.

T2 sequence (Q01959 whole entry, species assumed): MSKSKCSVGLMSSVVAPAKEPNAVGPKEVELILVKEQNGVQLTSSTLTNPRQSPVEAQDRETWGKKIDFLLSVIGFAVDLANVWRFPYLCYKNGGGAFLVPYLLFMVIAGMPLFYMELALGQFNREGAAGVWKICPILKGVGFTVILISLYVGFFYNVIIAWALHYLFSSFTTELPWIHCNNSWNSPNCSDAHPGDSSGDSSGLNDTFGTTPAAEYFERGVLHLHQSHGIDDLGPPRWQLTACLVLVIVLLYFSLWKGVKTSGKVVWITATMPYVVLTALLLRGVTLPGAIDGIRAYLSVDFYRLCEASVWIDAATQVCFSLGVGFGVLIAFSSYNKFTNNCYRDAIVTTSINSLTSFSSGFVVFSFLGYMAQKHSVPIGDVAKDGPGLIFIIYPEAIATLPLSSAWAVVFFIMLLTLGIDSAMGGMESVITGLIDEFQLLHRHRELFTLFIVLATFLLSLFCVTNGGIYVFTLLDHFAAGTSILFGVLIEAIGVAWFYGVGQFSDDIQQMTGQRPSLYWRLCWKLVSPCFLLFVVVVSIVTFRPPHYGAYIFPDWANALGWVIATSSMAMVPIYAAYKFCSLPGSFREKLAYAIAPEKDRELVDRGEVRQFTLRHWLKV
T1 sequence (P31645 whole entry, species assumed): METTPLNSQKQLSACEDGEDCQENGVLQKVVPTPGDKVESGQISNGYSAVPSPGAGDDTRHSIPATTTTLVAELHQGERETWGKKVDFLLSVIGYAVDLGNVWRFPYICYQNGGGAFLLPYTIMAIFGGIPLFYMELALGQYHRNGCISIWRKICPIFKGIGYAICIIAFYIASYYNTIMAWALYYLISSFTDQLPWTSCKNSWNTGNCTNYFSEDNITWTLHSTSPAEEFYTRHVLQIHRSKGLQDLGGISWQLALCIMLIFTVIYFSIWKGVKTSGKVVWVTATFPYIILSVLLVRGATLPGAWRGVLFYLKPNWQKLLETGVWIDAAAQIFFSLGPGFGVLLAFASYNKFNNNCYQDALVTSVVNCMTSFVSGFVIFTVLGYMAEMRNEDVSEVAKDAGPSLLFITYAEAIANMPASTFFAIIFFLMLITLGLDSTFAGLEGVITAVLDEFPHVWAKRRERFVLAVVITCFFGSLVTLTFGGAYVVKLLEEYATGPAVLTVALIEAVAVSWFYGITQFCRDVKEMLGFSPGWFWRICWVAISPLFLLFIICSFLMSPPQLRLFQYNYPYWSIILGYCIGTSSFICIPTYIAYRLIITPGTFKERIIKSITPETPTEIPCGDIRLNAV

For `O=S(=O)(NCCN1CCC(c2ccccc2)CC1)c1cccc2ccccc12` [Example 43, N-(2-(4-phenylpiperidin-1-yl)ethyl)naphthalen-1-sulfonamide], the “Triple reuptake inhibition (Ratio %) SERT” value in assay [1] was 64.15%. Further, the “Triple reuptake inhibition (Ratio %) DAT” value in assay [2] is recorded as 80.21%. Also, the “Triple reuptake inhibition (Ratio %) NET” value in assay [3] came out at 34.97%.

Consider `O=S(=O)(NCCN1CCC(c2ccccc2)CC1)c1ccc(-c2ccccc2)cc1` [Example 44, N-(2-(4-phenylpiperidin-1-yl)ethyl)-[1,1′-biphenyl]-4-sulfonamide], for which the “Triple reuptake inhibition (Ratio %) SERT” value in assay [1] is 15.55%. Also, in assay [2], the “Triple reuptake inhibition (Ratio %) DAT” value was found to be 37.93%. Moreover, in assay [3], the “Triple reuptake inhibition (Ratio %) NET” value came to 14.04%.

For `O=S(=O)(NCCN1CCC(c2ccccc2)CC1)c1ccc2ccccc2n1` [Example 45, N-(2-(4-phenylpiperidin-1-yl)ethyl)quinolin-2-sulfonamide], the “Triple reuptake inhibition (Ratio %) SERT” value in assay [1] is reported as 56.73%. The “Triple reuptake inhibition (Ratio %) DAT” value in assay [2] is given as 89.88%. Also, the “Triple reuptake inhibition (Ratio %) NET” value in assay [3] came out at 45.04%.

For `O=S(=O)(NCCN1CCN(Cc2ccccc2)CC1)c1ccc2ccccc2c1` [Example 46, N-(2-(4-benzylpiperazin-1-yl)ethyl)naphthalen-2-sulfonamide], the “Triple reuptake inhibition (Ratio %) SERT” value in assay [1] is recorded as 49.64%. Besides, the “Triple reuptake inhibition (Ratio %) DAT” value in assay [2] stood at 83.08%. Moreover, the “Triple reuptake inhibition (Ratio %) NET” value in assay [3] is recorded as 87.27%.

`O=S(=O)(NCCN1CCN(Cc2ccccc2)CC1)c1cccc2ccccc12` [Example 47, N-(2-(4-benzylpiperazin-1-yl)ethyl)naphthalen-1-sulfonamide]: in assay [1], the “Triple reuptake inhibition (Ratio %) SERT” value was 49.64%. In assay [2], the “Triple reuptake inhibition (Ratio %) DAT” value is 83.08%. Further, the “Triple reuptake inhibition (Ratio %) NET” value in assay [3] amounted to 87.27%.

As for `O=S(=O)(NCCN1CCN(c2ccc(Cl)cc2)CC1)c1ccc2ccccc2c1` [Example 50, N-(2-(4-(4-chlorophenyl)piperazinyl)ethyl)naphthalen-2-sulfonamide], the “Triple reuptake inhibition (Ratio %) SERT” value in assay [1] amounted to 45.16%. In assay [2], the “Triple reuptake inhibition (Ratio %) DAT” value came to 86.50%. In addition, the “Triple reuptake inhibition (Ratio %) NET” value in assay [3] is given as 87.27%.

As for `O=S(=O)(NCCN1CCN(c2ccc(Cl)cc2)CC1)c1cccc2ccccc12` [Example 51, N-(2-(4-(4-chlorophenyl)piperazinyl)ethyl)naphthalen-1-sulfonamide], in assay [1], the “Triple reuptake inhibition (Ratio %) SERT” value amounted to 47.19%. Also, the “Triple reuptake inhibition (Ratio %) DAT” value in assay [2] was determined as 68.53%. In assay [3], the “Triple reuptake inhibition (Ratio %) NET” value was determined as 64.45%.

In the case of `O=S(=O)(NCCN1CCN(c2ccc(Cl)cc2)CC1)c1ccc(-c2ccccc2)cc1` [Example 52, N-(2-(4-(4-chlorophenyl)piperazin-1-yl)ethyl)-[1,1′-biphenyl]-4-sulfonamide], in assay [1], the “Triple reuptake inhibition (Ratio %) SERT” value is 47.19%. In assay [2], the “Triple reuptake inhibition (Ratio %) DAT” value was found to be 68.53%. Moreover, the “Triple reuptake inhibition (Ratio %) NET” value in assay [3] is 64.45%.

On to `O=S(=O)(NCCN1CCN(c2ccc(Cl)cc2)CC1)c1ccc2ccccc2n1` [Example 53, N-(2-(4-(4-chlorophenyl)piperazinyl)ethyl)quinolin-2-sulfonamide], for which the “Triple reuptake inhibition (Ratio %) SERT” value in assay [1] came to 47.19%. Besides, in assay [2], the “Triple reuptake inhibition (Ratio %) DAT” value is 68.53%. In assay [3], the “Triple reuptake inhibition (Ratio %) NET” value is 64.45%.

For the compound `O=S(=O)(NCCCN1CCC(Cc2ccccc2)CC1)c1ccc2ccccc2c1` [Example 54, N-(3-(4-benzylpiperidin-1-yl)propyl)naphthalen-2-sulfonamide], the “Triple reuptake inhibition (Ratio %) SERT” value in assay [1] came to 46.95%. For the same compound, the IC50 was determined as 1.94 µM in assay [1] (concentration at which Ratio % is 50%, 6 concentrations 1 nM to 1 μM, read-out: Triple reuptake inhibition (IC50, μM) SERT); 0.948 µM in assay [2] (concentration at which Ratio % is 50%, 6 concentrations 1 nM to 1 μM, read-out: Triple reuptake inhibition (IC50, μM) DAT); 1.25 µM in assay [3] (concentration at which Ratio % is 50%, 6 concentrations 1 nM to 1 μM, read-out: Triple reuptake inhibition (IC50, μM) NET). Besides, the “Triple reuptake inhibition (Ratio %) DAT” value in assay [2] was determined as 45.75%. Moreover, the “Triple reuptake inhibition (Ratio %) NET” value in assay [3] was found to be 36.68%.

For the origin of these results see patent US20230212121A1 (DAEGU-GYEONGBUK MEDICAL INNOVATION FOUNDATION, priority 2020, published 2023).
